The record followed here is patent US8808769B2, “Method for extraction of fractions containing pharmacologically active ingredients with less cytotoxicity from one or more plants” (Bioved Pharmaceuticals, Inc., priority 2009, dated 2014).

The subject of the experiment is Pseudomonas aeruginosa (ATCC 9027). Nature of the experiment: agar well diffusion assay (antimicrobial activity). Particulars: ATCC9027, 100 μl of 100 mg/ml solution per well, 37° C., 24 hours of incubation, mean of three readings, read-out: zone of inhibition (diameter). Format: cell-based. From the text: Pseudomonas aeruginosa (ATCC 9027) strain was used as test organisms. The culture media, Nutrient Agar (NA), Nutrient Broth (NB) and Czapek Yeast Extract Agar (CYA) used for the growth of microorganisms, were purchased from Hi-Media. All other chemicals, including organic solvents used for the extraction of the plant metabolites, were of analytical grade.
The AP Extract 2, SX Extract 2, OS Extract 2, AP Extract 1, SX Extract 1 and OS Extract 1 were separately dissolved in 100% aqueous dimethylsulfoxide (DMSO) to obtain a final concentration of 100 mg/ml for each extract. 100 mg/ml solution of Chloramphenicol was prepared and used as a Positive control. Antimicrobial activity of the above mentioned extracts was determined, using the agar well diffusion assay method (Perez et al., 1990). Approximately 20 ml of molten and cooled media (NA and CYA) were poured in sterilized Petri dishes. The plates were left overnight at room temperature to check for any contamination to appear. The test organism was grown in nutrient broth for 24 hours. […]
Agar wells of 5 mm diameter were prepared with the help of a sterilized stainless steel cork borer. […] The antimicrobial activity of the extracts was taken on the basis of diameter of zone of inhibition, which was measured at cross-angles after 24 hours of incubation and the mean of three readings for each extract.

The structures appear in SMILES notation.

The zone of inhibition is the extent of the growth-free halo in a diffusion test. Turning to `O=C(N[C@H](CO)[C@H](O)c1ccc([N+](=O)[O-])cc1)C(Cl)Cl` [positive standard, Chloramphenicol], the zone of inhibition at 100000 µg/mL was 40 mm.
